IC50 data for 7 molecules are collected here from patent EP4741392A1, “1H-PYRAZOLO[4,3-C]PYRIDINE COMPOUND, AND COMPOSITION THEREOF AND USE THEREOF” (Shenzhen TargetRx Co., Ltd., priority 2023, dated 2025).

pIC50: −log10 of the molar value. Some results are limits rather than exact numbers.

Holding throughout (type): biochemical
The target of one assay is T1, BTK kinase (Homo sapiens, UniProt Q06187).
T1 construct: purchased Invitrogen PV3587
Description: Kinase activity inhibition assay (HTRF TK Kit). In short, it runs like this:
(§1)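 Percent inhibition, derived from time-resolved FRET ratios (665/620 nm) relative to no-enzyme and DMSO wells, was fitted against log concentration to give IC50. Reactions contained kinase, substrate and ATP at room temperature, followed by 1 h detection.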

The target of the next assay is T2, BTK C481S (Homo sapiens, UniProt Q06187, C481S).
T2 construct: purchased Carna 08-547
T2 sequence (Q06187 whole entry C481S): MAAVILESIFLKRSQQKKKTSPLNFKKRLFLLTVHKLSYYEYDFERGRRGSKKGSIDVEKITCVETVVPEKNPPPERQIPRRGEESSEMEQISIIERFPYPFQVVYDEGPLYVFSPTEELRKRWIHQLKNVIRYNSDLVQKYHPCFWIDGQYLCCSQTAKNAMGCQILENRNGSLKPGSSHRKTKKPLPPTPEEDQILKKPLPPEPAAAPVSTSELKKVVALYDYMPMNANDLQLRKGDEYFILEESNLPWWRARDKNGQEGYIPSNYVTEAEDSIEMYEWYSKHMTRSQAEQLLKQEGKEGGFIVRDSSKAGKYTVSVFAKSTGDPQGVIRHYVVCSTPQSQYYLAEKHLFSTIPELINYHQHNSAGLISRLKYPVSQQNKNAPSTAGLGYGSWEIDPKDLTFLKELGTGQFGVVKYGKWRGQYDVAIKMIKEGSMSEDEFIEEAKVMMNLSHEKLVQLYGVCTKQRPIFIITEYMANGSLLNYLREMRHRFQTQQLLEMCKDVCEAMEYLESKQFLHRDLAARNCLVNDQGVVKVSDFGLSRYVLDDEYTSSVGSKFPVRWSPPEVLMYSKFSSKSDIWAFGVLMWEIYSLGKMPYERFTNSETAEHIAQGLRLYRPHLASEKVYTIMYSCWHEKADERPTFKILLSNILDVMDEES
Description: Kinase activity inhibition assay (HTRF TK Kit). Put shortly: as §1

For another assay, the target named is T3, BTK T474I (Homo sapiens, UniProt Q06187, T474I).
T3 construct: purchased SignalChem B10-12HH
T3 sequence (Q06187 whole entry T474I): as the sequence (Q06187 whole entry C481S) above, with T474I, S481C counted along it
In words: Kinase activity inhibition assay (HTRF TK Kit). Put shortly:
as §1

The next assay addresses T4, TEC (Homo sapiens, UniProt P42680).
T4 construct: purchased Carna 08-182
T4 sequence (P42680 1-631): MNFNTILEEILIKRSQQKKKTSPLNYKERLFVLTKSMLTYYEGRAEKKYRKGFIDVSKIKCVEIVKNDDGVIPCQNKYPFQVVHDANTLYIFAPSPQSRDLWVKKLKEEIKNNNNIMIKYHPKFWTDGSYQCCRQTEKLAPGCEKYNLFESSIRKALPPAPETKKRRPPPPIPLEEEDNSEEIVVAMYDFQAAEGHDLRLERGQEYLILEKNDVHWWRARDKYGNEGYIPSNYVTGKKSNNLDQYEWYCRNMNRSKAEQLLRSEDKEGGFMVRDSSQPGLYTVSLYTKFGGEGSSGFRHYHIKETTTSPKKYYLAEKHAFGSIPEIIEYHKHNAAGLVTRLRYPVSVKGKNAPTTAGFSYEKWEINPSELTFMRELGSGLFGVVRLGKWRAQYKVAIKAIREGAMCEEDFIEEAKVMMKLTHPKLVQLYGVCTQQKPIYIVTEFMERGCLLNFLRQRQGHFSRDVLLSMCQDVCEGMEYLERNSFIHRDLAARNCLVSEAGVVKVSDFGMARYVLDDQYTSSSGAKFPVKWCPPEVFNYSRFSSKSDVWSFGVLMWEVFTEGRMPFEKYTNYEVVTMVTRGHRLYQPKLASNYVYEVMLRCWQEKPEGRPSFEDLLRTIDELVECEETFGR
In words: Kinase activity inhibition assay (HTRF TK Kit), selectivity. In short, it runs like this:
as §1

In a further assay the target is T5, ITK (Homo sapiens, UniProt Q08881).
T5 construct: purchased Carna 08-181
T5 sequence (Q08881 1-620): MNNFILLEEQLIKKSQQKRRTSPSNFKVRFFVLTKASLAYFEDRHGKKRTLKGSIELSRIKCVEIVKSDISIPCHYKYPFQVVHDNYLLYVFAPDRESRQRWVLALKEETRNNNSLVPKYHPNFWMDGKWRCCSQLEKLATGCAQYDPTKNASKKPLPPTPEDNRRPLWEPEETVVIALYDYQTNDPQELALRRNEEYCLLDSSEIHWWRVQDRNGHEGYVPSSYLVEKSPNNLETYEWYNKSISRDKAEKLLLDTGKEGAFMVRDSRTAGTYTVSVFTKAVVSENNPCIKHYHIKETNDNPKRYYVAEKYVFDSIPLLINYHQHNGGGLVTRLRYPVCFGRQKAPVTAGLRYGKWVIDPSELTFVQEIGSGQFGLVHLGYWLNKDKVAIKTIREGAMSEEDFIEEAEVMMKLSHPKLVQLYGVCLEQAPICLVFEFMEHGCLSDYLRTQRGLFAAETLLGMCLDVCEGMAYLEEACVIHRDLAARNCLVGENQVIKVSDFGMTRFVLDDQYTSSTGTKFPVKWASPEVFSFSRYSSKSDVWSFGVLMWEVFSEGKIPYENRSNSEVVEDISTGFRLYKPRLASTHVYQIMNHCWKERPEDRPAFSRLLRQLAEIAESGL
Described as above. Put shortly: as §1

In the next assay the target is T6, EGFR (Homo sapiens, UniProt P00533).
T6 construct: purchased Carna 08-115
T6 sequence (P00533 669-1210 limits assumed): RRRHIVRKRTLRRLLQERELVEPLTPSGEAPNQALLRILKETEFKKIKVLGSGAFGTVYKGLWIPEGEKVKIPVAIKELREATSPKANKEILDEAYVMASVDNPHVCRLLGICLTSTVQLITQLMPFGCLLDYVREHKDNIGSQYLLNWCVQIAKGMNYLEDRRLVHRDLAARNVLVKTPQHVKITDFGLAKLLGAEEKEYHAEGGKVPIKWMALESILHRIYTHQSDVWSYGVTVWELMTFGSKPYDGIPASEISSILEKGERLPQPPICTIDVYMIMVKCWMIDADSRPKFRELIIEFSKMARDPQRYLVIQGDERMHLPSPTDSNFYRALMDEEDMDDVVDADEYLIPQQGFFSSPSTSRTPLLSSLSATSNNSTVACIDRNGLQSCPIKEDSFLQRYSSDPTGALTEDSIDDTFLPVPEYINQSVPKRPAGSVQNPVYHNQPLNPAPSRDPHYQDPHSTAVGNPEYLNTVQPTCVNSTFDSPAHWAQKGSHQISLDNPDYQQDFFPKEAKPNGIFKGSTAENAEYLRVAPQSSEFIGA
The assay is described as above. In short, it runs like this:
as §1

T1 sequence (Q06187 whole entry): as the sequence (Q06187 whole entry C481S) above, with S481C counted along it

As for `COc1ccc(F)cc1C(=O)NCc1ccc(-c2ncc(-c3ccc(N4CCN(C)C[C@H]4C)cn3)c3[nH]nc(N)c23)cc1` [Example 75, (R)-N-(-4-(3-amino-7-(5-(2,4-dimethylpiperazin-1-yl)pyridin-2-yl) 1H-pyrazolo[4,3-c]pyridin-4-yl)benzyl)-5-fluoro-2-methoxybenzamide], the pIC50 on BTK kinase is 8.30 to 9.00; at BTK C481S, no less than 9.00; at BTK T474I, 7.30 to 8.30; at TEC, 7.30 to 8.30; at ITK, 7.30 to 8.30; on EGFR, 7.30 to 8.30.
For `COc1ccc(F)cc1C(=O)NCc1ccc(-c2ncc(-c3ccc(N4CCOCC4)cn3)c3[nH]nc(N)c23)cc1` [Example 76, N-(4-(3-amino-7-(5-morpholinopyridin-2-yl)-1H-pyrazolo[4,3-c]pyridin-4-yl)benzyl)-5-fluoro-2-methoxybenzamide], the pIC50 on BTK kinase is no less than 9.00; on BTK C481S, no less than 9.00; at BTK T474I, 8.30 to 9.00; on TEC it was 8.30 to 9.00; on ITK it was 6.30 to 7.30; at EGFR, 7.30 to 8.30.
For `COc1ccc(F)cc1C(=O)NCc1ccc(-c2ncc(-c3nccn4cccc34)c3[nH]nc(N)c23)cc1` [Example 77, N-(4-(3-amino-7-(pyrrolo[1,2-a]pyrazin-1-yl)-1H-pyrazolo[4,3-c]pyridin-4-yl)benzyl)-5-fluoro-2-methoxybenzamide], the pIC50 on BTK kinase was 8.30 to 9.00; at BTK C481S it was 8.30 to 9.00; on BTK T474I, 6.30 to 7.30; on TEC, 7.30 to 8.30; on ITK, less than 6.30; at EGFR, 6.30 to 7.30.
Consider `COc1ccc(F)cc1C(=O)NCc1ccc(-c2ncc(-c3cc4cnccn4n3)c3[nH]nc(N)c23)cc1` [Example 78, N-(4-(3-amino-7-(pyrazolo[1,5-a]pyrazin-2-yl)-1H-pyrazolo[4,3-c]pyridin-4-yl)benzyl)-5-fluoro-2-methoxybenzamide], for which the pIC50 on BTK kinase was no less than 9.00; at BTK C481S it was no less than 9.00; on BTK T474I, 7.30 to 8.30; at TEC it was 7.30 to 8.30; on ITK, 6.30 to 7.30; on EGFR it was 7.30 to 8.30.
Consider `COc1ccc(F)cc1C(=O)NCc1ccc(-c2ncc(-c3ccc(NC(=O)C4CC4)cn3)c3[nH]nc(N)c23)cc1` [Example 79, N-(4-(3-amino-7-(5-(cyclopropaneformamido)pyridin-2-yl)-1H-pyrazolo[4,3-c]pyridin-4-yl)benzyl)-5-fluoro-2-methoxybenzamide], for which the pIC50 on BTK kinase was 7.30 to 8.30; at BTK C481S, 7.30 to 8.30; on BTK T474I, less than 6.30; on TEC, less than 6.30; on ITK it was less than 6.30; on EGFR it was less than 6.30.
With `COc1ccc(F)cc1C(=O)NCc1ccc(-c2ncc(-c3cc(NC(=O)C4CC4)ccn3)c3[nH]nc(N)c23)cc1` [Example 80, N-(4-(3-amino-7-(4-(cyclopropaneformamido)pyridin-2-yl)-1H-pyrazolo[4,3-c]pyridin-4-yl)benzyl)-5-fluoro-2-methoxybenzamide], the pIC50 was 8.30 to 9.00 at BTK kinase; 8.30 to 9.00 at BTK C481S; 6.30 to 7.30 at BTK T474I; 7.30 to 8.30 on TEC; less than 6.30 at ITK; 6.30 to 7.30 at EGFR.
As to `COc1ccc(F)cc1C(=O)NCc1ccc(-c2ncc(-c3ccc(F)cn3)c3[nH]nc(N)c23)c(F)c1` [Example 82, N-(4-(3-amino-7-(5-fluoropyridin-2-yl)-1H-pyrazolo[4,3-c]pyridin-4-yl)-3-fluorobenzyl)-5-fluoro-2-methoxybenzamide], the pIC50 on BTK kinase is 8.30 to 9.00; at BTK C481S, 8.30 to 9.00; at BTK T474I it was 6.30 to 7.30; at TEC it was 6.30 to 7.30; on ITK, less than 6.30; at EGFR it was less than 6.30.
